Test results reported in ChEMBL document CHEMBL6121037, “Screening, Discovery, and Optimization of the Natural Antitubercular Chlorflavonin from a Marine-Derived Fungal Library” (J Nat Prod, 2025).
Counter-ions that a name gives are not always drawn. The source made the active and inactive calls. The calls are words filed in the database; no cut-off is given here.

Assays:
[1] = system: Mycobacterium tuberculosis; assay: Antitubercular activity against Mycobacterium tuberculosis H37Ra assessed as reduction in microbial growth; type: functional
Mycobacterium marinum = assay: Antibacterial activity against Mycobacterium marinum assessed as reduction in microbial growth at 100 ug/ml; type: functional, organism-based; settings: dose 100.0 µg/ml
Staphylococcus aureus = assay: Antibacterial activity against Staphylococcus aureus assessed as reduction in microbial growth at 25 ug/ml incubated for 24 hrs; type: functional, organism-based; settings: dose 25.0 µg/ml
A549 [2] = assay: Cytotoxicity against human A549 cells at 20 uM by MTT assay; type: functional, cell-based
A549 [3] = assay: Cytotoxicity against human A549 cells by MTT assay; type: functional, cell-based

SMILES | MIC90 [1] [µM] | Activity (Mycobacterium marinum) | Activity (Staphylococcus aureus) | Activity (A549 [2]) | IC50 (A549 [3]) [nM]
COc1cc(O)c2c(=O)c(OC)c(-c3cccc(Cl)c3OC(=O)/C=C/c3cccc(Cl)c3)oc2c1OC | 0.9 | inactive | inactive | inactive | 
COc1ccc(/C=C/C(=O)Oc2c(Cl)cccc2-c2oc3c(OC)c(OC)cc(O)c3c(=O)c2OC)cc1 | 1.9 | inactive | inactive | inactive | 
COc1cc(OC(=O)c2ccccc2)c2c(=O)c(OC)c(-c3cccc(Cl)c3OC(=O)c3ccccc3)oc2c1OC | 1.7 | inactive | inactive | inactive | 
COc1cc(OC(=O)c2cccc(N(C)C)c2)c2c(=O)c(OC)c(-c3cccc(Cl)c3OC(=O)c3cccc(N(C)C)c3)oc2c1OC |  | inactive | inactive | inactive | 
COc1cc(O)c2c(=O)c(OC)c(-c3cccc(Cl)c3OC(=O)/C=C/c3ccc(C(F)(F)F)cc3)oc2c1OC | 1.7 | inactive | inactive | inactive | 
COc1cc(O)c2c(=O)c(OC)c(-c3cccc(Cl)c3OC(=O)/C=C/c3ccc(F)c(F)c3)oc2c1OC |  | inactive | inactive | inactive | 
COc1cc(O)c2c(=O)c(OC)c(-c3ccccc3O)oc2c1OC |  | inactive | inactive | inactive | 
COc1cc(O)c2c(=O)c(OC)c(-c3cccc(Cl)c3OCc3ccc(F)cc3)oc2c1OC |  | inactive | inactive | inactive | 
COc1cc(O)c2c(=O)c(OC)c(-c3cccc(Cl)c3OC(=O)/C=C/c3ccc(N(C)C)cc3)oc2c1OC |  | inactive | inactive | inactive | 
COc1cc(OC(=O)c2cccc(F)c2)c2c(=O)c(OC)c(-c3cccc(Cl)c3OC(=O)c3cccc(F)c3)oc2c1OC | 1.6 | inactive | inactive | inactive | 
COc1cc(OCc2cccc(C)c2)c2c(=O)c(OC)c(-c3cccc(Cl)c3OCc3cccc(C)c3)oc2c1OC |  | inactive | inactive | inactive | 
COc1cc(O)c2c(=O)c(OC)c(-c3cccc(Cl)c3OC(=O)/C=C/c3cccnc3)oc2c1OC | 2 | inactive | inactive | inactive | 
COc1cc(O)c2c(=O)c(OC)c(-c3cccc(Cl)c3OC(=O)c3cccc(C)c3)oc2c1OC |  | inactive | inactive | inactive | 
COc1cc(O)c2c(=O)c(OC)c(-c3cccc(Cl)c3OC(=O)c3cccnc3)oc2c1OC | 2.1 | inactive | inactive | inactive | 
COc1cc(OC(=O)/C=C/c2ccc(C(F)(F)F)cc2)c2c(=O)c(OC)c(-c3cccc(Cl)c3OC(=O)/C=C/c3ccc(C(F)(F)F)cc3)oc2c1OC |  | inactive | inactive | inactive | 
COc1cc(O)c2c(=O)c(OC)c(-c3cccc(Cl)c3OC(=O)c3cccc(N)c3)oc2c1OC | 2 | inactive | inactive | inactive | 
COc1cc(O)c2c(=O)c(OC)c(-c3cc(Br)cc(Cl)c3O)oc2c1OC |  | inactive | inactive | inactive | 
COc1cc(O)c2c(=O)c(OC)c(-c3cccc(Cl)c3OC(=O)c3cccc(Cl)c3)oc2c1OC | 1.9 | inactive | inactive | inactive | 
COc1cc(OCc2ccc(C(F)(F)F)cc2)c2c(=O)c(OC)c(-c3cccc(Cl)c3OCc3ccc(C(F)(F)F)cc3)oc2c1OC |  | inactive | inactive | inactive | 
COc1cc(O)c2c(=O)c(OC)c(-c3cccc(Cl)c3O)oc2c1OC | 2.6 | inactive | inactive | inactive | 
COc1cc(OC(=O)c2cccc(Cl)c2)c2c(=O)c(OC)c(-c3cccc(Cl)c3OC(=O)c3cccc(Cl)c3)oc2c1OC |  | inactive | inactive | inactive | 
COc1ccc(C(=O)Oc2c(Cl)cccc2-c2oc3c(OC)c(OC)cc(OC(=O)c4ccc(OC)cc4)c3c(=O)c2OC)cc1 |  | inactive | inactive | inactive | 

SMILES | MIC90 [1] [µM] | Activity (Mycobacterium marinum) | Activity (Staphylococcus aureus) | Activity (A549 [2]) | IC50 (A549 [3]) [nM]
COc1cc(O)c2c(=O)c(OC)c(-c3cccc(Cl)c3OC(=O)c3cccc(Br)c3)oc2c1OC | 1.8 | inactive | inactive | inactive | 
NNC(=O)c1ccncc1 [ISONIAZID] | 0.3 | inactive | inactive |  | 
COc1cc(O)c2c(=O)c(OC)c(-c3cccc(Cl)c3OCc3ccc(C(C)(C)C)cc3)oc2c1OC |  | inactive | inactive | inactive | 
COc1cc(C(=O)Oc2c(Cl)cccc2-c2oc3c(OC)c(OC)cc(O)c3c(=O)c2OC)cc(OC)c1OC | 1.8 | inactive | inactive | inactive | 
COc1cc(O)c2c(=O)c(OC)c(-c3cccc(Cl)c3OC(=O)/C=C/c3ccccc3)oc2c1OC | 2 | inactive | inactive | inactive | 
COc1cc(OCc2ccc(C(C)(C)C)cc2)c2c(=O)c(OC)c(-c3cccc(Cl)c3OCc3ccc(C(C)(C)C)cc3)oc2c1OC |  | inactive | inactive | inactive | 
COc1cccc2c1C(=O)c1c(O)c3c(c(O)c1C2=O)C[C@@](O)(C(=O)CO)C[C@@H]3O[C@H]1C[C@H](N)[C@H](O)[C@H](C)O1 [DOXORUBICIN HYDROCHLORIDE] |  |  |  |  | 250
COc1cc(O)c2c(=O)c(OC)c(-c3cccc(Cl)c3OCCc3cccc(F)c3)oc2c1OC |  | inactive | inactive | inactive | 
COc1cc(O)c2c(=O)c(OC)c(-c3cccc(Cl)c3OC(=O)c3ccccc3)oc2c1OC | 1 | inactive | inactive | inactive | 
COc1cc(O)c2c(=O)c(OC)c(-c3cccc(Cl)c3OC(=O)/C=C/c3ccsc3)oc2c1OC | 1.9 | inactive | inactive | inactive | 
COc1cc(O)c2c(=O)c(OC)c(-c3cccc(Cl)c3OC(=O)/C=C/c3ccccc3Cl)oc2c1OC | 0.7 | inactive | inactive | inactive | 
COc1c(Br)c(O)c2c(=O)c(OC)c(-c3cc(Br)cc(Cl)c3O)oc2c1OC |  | inactive | inactive | inactive | 
COc1cc(O)c2c(=O)c(OC)c(-c3cccc(Cl)c3OCc3cccc(C)c3)oc2c1OC |  | inactive | inactive | inactive | 
COc1cc(O)c2c(=O)c(OC)c(-c3cccc(Br)c3O)oc2c1OC | 1.2 |  |  |  | 
COc1cc(/C=C/C(=O)Oc2c(Cl)cccc2-c2oc3c(OC)c(OC)cc(O)c3c(=O)c2OC)cc(OC)c1OC | 1.7 | inactive | inactive | inactive | 
COc1cc(OC(=O)c2cccs2)c2c(=O)c(OC)c(-c3cccc(Cl)c3OC(=O)c3cccs3)oc2c1OC |  | inactive | inactive | inactive | 
COc1ccc(C(=O)Oc2c(Cl)cccc2-c2oc3c(OC)c(OC)cc(O)c3c(=O)c2OC)cc1 | 2 | inactive | inactive | inactive | 
COc1cc(O)c2c(=O)c(OC)c(-c3cccc(Cl)c3OC(=O)/C=C/c3ccc(C)cc3)oc2c1OC | 1.9 | inactive | inactive | inactive | 
COc1cc(C(=O)Oc2c(Cl)cccc2-c2oc3c(OC)c(OC)cc(OC(=O)c4cc(OC)c(OC)c(OC)c4)c3c(=O)c2OC)cc(OC)c1OC |  | inactive | inactive | inactive | 
COc1cc(O)c2c(=O)c(OC)c(-c3cccc(Cl)c3OC(=O)N(C)C)oc2c1OC |  | inactive | inactive | inactive | 
COc1cc(OCc2cccc(F)c2)c2c(=O)c(OC)c(-c3cccc(Cl)c3OCc3cccc(F)c3)oc2c1OC |  | inactive | inactive | inactive | 
